Assay results reported in publication PMC8344252, “Carbonic anhydrase activation profile of indole-based derivatives” (Journal of Enzyme Inhibition and Medicinal Chemistry, 2021).

Experiments:
hCA I = hCA I (Homo sapiens, UniProt P00915); assay: CA activation, stopped-flow CO2 hydrase assay; assay type: biochemical; conditions: activation constant; mean from 3 assays, errors ±5–10%
Description: (§1) A stopped-flow method[38] has been used for assaying the CA catalysed CO2 hydration activity with Phenol red as indicator, working at the absorbance maximum of 557 nm, following the initial rates of the CA-catalysed CO2 hydration reaction for 10–100 s. For each activator, at least six traces of the initial 5–10% of the reaction have been used for determining the initial velocity. The uncatalyzed rates were determined in the same manner and subtracted from the total observed rates. Stock solutions of activator (0.1 mM) were prepared in distilled-deionized water and dilutions up to 0.1 nM were done thereafter with the assay buffer. The activation constant (KA), defined similarly with the inhibition constant (KI), was obtained by considering the classical Michaelis–Menten equation (Equation (3), which has been fitted by nonlinear least squares by using PRISM 3: v=vmax/{1+KM/[S](1+[A]f/KA)} (3) [drawing 4] where [A]f is the free concentration of activator.
(§2) Working at substrate concentrations considerably lower than KM ([S]≪KM), and considering that [A]f can be represented in the form of the total concentration of the enzyme ([E]t) and activator ([A]t), the obtained competitive steady-state equation for determining the activation constant is given by Equation 4: v=v0KA/{KA+[A]t–0.5{([A]t+[E]t+ KA)–([A]t+[E]t+ KA)^2–4[A]t[E]t^1/2}} (4) [drawing 5] where v0 represents the initial velocity of the enzyme-catalysed reaction in the absence of an activator[39–42]. Enzyme concentrations in the assay system were in the range of 6.5–12.0 nM.

hCA II = hCA II (Homo sapiens, UniProt P00918); assay: CA activation, stopped-flow CO2 hydrase assay; assay type: biochemical; conditions: for KA ratio [hCA II/hCA VII]: KA ratio for the indicated enzyme isoforms, value in square brackets; for KA hCA II: activation constant, mean from 3 assays, errors ±5–10%
Description: as §1, §2

hCA VA = hCA VA (Homo sapiens, UniProt P35218); assay: CA activation, stopped-flow CO2 hydrase assay; assay type: biochemical; conditions: for KA ratio [hCA VA/hCA VII]: KA ratio for the indicated enzyme isoforms, value in square brackets; for KA hCA VA: activation constant, mean from 3 assays, errors ±5–10%; for hCA VA activation, judged in words: text comment on KA values
Sequence of hCA VA (P35218 39-305): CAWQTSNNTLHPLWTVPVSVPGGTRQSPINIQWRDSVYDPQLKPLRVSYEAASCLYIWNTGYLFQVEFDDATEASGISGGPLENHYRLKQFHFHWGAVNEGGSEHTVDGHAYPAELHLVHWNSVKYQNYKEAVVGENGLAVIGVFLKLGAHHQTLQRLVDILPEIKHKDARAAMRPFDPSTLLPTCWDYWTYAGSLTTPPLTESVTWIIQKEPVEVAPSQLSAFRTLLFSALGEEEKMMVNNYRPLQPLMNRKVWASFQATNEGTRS
Description: as §1, §2

hCA VII = hCA VII (Homo sapiens, UniProt P43166); assay: CA activation, stopped-flow CO2 hydrase assay; assay type: biochemical; conditions: activation constant; mean from 3 assays, errors ±5–10%
Sequence of hCA VII (P43166 whole entry): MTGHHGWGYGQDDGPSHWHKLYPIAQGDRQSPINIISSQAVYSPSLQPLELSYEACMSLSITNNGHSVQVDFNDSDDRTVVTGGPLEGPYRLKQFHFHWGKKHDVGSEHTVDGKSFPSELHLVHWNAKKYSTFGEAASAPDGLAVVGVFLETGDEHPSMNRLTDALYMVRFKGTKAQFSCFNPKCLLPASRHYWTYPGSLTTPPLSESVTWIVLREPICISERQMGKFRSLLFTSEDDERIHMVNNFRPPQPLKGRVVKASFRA
Description: as §1, §2

[1] = system: C20 human microglial cell line; assay: Cell viability (MTS) assay; assay type: cell-based; conditions: 24 h; for Cell viability of C20 cells: highest tested concentration (10 µM), vs vehicle (DMSO) control
Description: (§3) All materials for cell culturing were obtained by Corning, New York, USA, and all used reagents were purchased by Sigma-Aldrich (Saint Louis, MO, USA). The human microglial cell line C20, originally generated by David Alvarez-Carbonell et al.[52], was grown in DMEM-F12 medium supplemented with 10% of FBS, 100 U/mL penicillin, 0.1 mg/mL streptomycin, and neomycin (600 μg/mL), as a selector of the immortalised telomerase-expressing cells. Cells were kept at 37 °C under a humidified atmosphere with […] and 5% CO2. Viable cells (identified by counting trypan-blue-excluding cellular elements) were plated at a density of 100,000 cells each well in a 24-well plate. To evaluate the ability of target compounds to modulate the cellular viability and brain-derived neurotrophic factor (BDNF) release, C20 cells were challenged with CAAs.
C20 cells were seeded in 96-well microplates at a density of 5000 cells/well and maintained in complete culture media. The day after the seed, cells were treated with CAAs 7, 8, and 9 for 24 h (1 and 10 µM). The cell viability was determined using the [3–(4,5-dimethylthiazol-2-yl)-5–(3-carboxymethoxyphenol)-2–(4-sulfophenyl)-2H-tetrazolium, inner salt] (MTS) assay according to the manufacturer’s instructions (Promega, Milano, Italy). This tetrazolium dye can be reduced by the metabolic reducing agents NADH and NADPH to a water-soluble formazan salt. The amount of formazan produced is considered to be a marker of cell viability. The MTS reagent was added to treated C20 cells and the colorimetric conversion of formazane was quantified after 1 h by measuring the absorbance at 490 nm (EnSightTM multimode plate reader, equipped with Kaleido Data Acquisition and Analysis Software).

[2] = system: BDNF release from C20 human microglial cells; assay: BDNF enzyme-linked immunosorbent assay on conditioned medium; assay type: cell-based; conditions: 10 µM, 2 h treatment, medium collected after 24 h, ELISA, normalised on crystal violet
Description: as §3, with “To evaluate the ability of target compounds to modulate the cellular viability and brain-derived neurotrophic factor (BDNF) release, C20 cells were challenged with CAAs.” left out
C20 cells were seeded in 24-well microplates at a density of 100,000 cells/well and maintained in complete culture media. […] At the end of the 24 h, the levels of BDNF were measured in the C20 conditioned medium using an enzyme-linked immunosorbent assay (ELISA) Kit (SEA011Mi 96 Tests, Cloude-Clone Corp., CCC, USA), accordingly to manufacture instructions. […] The enzyme-substrate reaction was terminated by the addition of sulphuric acid solution and the colour change was measured spectrophotometrically at a wavelength of 450 nm ± 10 nm. The concentration of BDNF in the samples was then determined by comparing the O.D. of the samples to the standard curve. […]

Sequence of hCA I (P00915 whole entry): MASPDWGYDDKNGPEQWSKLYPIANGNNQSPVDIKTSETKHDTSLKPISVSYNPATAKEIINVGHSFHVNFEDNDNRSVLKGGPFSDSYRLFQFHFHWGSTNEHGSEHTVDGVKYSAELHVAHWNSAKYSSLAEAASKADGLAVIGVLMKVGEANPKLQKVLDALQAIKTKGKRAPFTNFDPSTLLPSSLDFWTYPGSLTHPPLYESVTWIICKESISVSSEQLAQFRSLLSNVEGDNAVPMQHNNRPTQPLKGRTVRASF

Compound	KA hCA I (hCA I)	KA ratio [hCA II/hCA VII] (hCA II)	KA hCA II (hCA II)	KA ratio [hCA VA/hCA VII] (hCA VA)	KA hCA VA (hCA VA)	KA hCA VII (hCA VII)	hCA VA activation, judged in words (hCA VA)	melting point	Cell viability of C20 cells [1]	Cytotoxic activity on C20 cells ([1]; 1 and 10 µM, any of the tested concentrations)	BDNF levels in medium of C20 cells [2]
CN(C)CCOc1ccc2c(c1)c(C(=O)NCCO)cn2Cc1ccccc1 [Compound 6, 5-(2-(Dimethylamino)ethoxy)-1-benzyl-N-(2-hydroxyethyl)-1H-indole-3-carboxamide]	> 100 µM	> 9.3	> 100 µM	2.5	26.8 µM	10.7 µM					
CCN(CC)CCNC(=O)C(=O)c1cn(Cc2ccccc2)c2ccc(OCCO)cc12 [Compound 2, 2-(5-(2-Hydroxyethoxy)-1-benzyl-1H-indol-3-yl)-N-(2-(diethylamino)ethyl)glyoxylamide]	88.9 µM	> 10.0	> 100 µM	2.9	28.7 µM	10.0 µM					
CN(C)CCCOc1ccc2c(c1)c(C(=O)C(=O)NCCCO)cn2Cc1ccccc1 [Compound 3, 2-(5-(3-(Dimethylamino)propoxy)-1-benzyl-1H-indol-3-yl)-N-(3-hydroxypropyl)glyoxamide]	> 100 µM	> 9.4	> 100 µM	4.8	50.9 µM	10.6 µM	poor activity	111 to 113 °C			
NCCc1c[nH]cn1 [Histamine, reference compound]	2.1 µM		125 µM		0.010 µM	37.5 µM					
CCOC(=O)c1cn(Cc2ccccc2)c2ccc(OCCCN(C)C)cc12 [Compound 8, Ethyl 5-(3-(dimethylamino)propoxy)-1-benzyl-1H-indole-3-carboxylate]	69.1 µM	> 13.9	> 100 µM	8.3	59.8 µM	7.2 µM	poor activity	58 to 60 °C	slight, although not statistically significant, reduction in cell viability		
CCN(CC)CCOc1ccc2c(c1)c(C(=O)NCc1ccccc1)cn2Cc1ccccc1 [Compound 7, 5-(2-(Diethylamino)ethoxy)-N,1-dibenzyl-1H-indole-3-carboxamide]	> 100 µM	> 13.3	> 100 µM	3.2	24.4 µM	7.5 µM		57 to 59 °C	a little increase in cell viability	did not exhibit cytotoxic activity	significant increase in BDNF levels
CN(C)CCCNC(=O)C(=O)c1cn(Cc2ccccc2)c2ccc(OCCO)cc12 [Compound 1, 2-(5-(2-Hydroxyethoxy)-1-benzyl-1H-indol-3-yl)-N-(3-(dimethylamino)propyl)glyoxylamide]	> 100 µM	> 9.3	> 100 µM	2.3	25.0 µM	10.8 µM					
CN(C)CCCOc1ccc2c(c1)c(C(=O)NCCO)cn2Cc1ccccc1 [Compound 5, 5-(3-(Dimethylamino)propoxy)-1-benzyl-N-(2-hydroxyethyl)-1H-indole-3-carboxamide]	> 100 µM	> 9.6	> 100 µM	2.7	28.0 µM	10.4 µM					
CCOC(=O)c1cn(Cc2ccccc2)c2ccc(OCCN(C)C)cc12 [Compound 9, Ethyl 5-(2-(dimethylamino)ethoxy)-1-benzyl-1H-indole-3-carboxylate]	> 100 µM	> 12.2	> 100 µM	3.5	29.1 µM	8.2 µM		69 to 71 °C	slight, although not statistically significant, reduction in cell viability		
CCN(CC)CCOc1ccc2c(c1)c(C(=O)C(=O)NCCO)cn2Cc1ccccc1 [Compound 4, 2-(5-(2-(Diethylamino)ethoxy)-1-benzyl-1H-indol-3-yl)-N-(2-hydroxyethyl)glyoxamide]	> 100 µM	> 11.0	> 100 µM	3.8	34.4 µM	9.1 µM		116 to 118 °C			
